Several values for one entry are separate records, joined by “and”; a condition that tells them apart may be missing. Identical values can stand only once.

A short description of this series: solvent given as SMILES.

Consider `N#CC(C#N)=Cc1nc2ccc(C#Cc3ccc(N(c4ccccc4)c4ccccc4)cc3)cc2s1`, for which, for the setting “in Cc1ccccc1”, the emission maximum was 617 nm.

With `c1ccc2c(c1)c1ccccc1n2-c1ccc2c(c1)c1ccccc1n2-c1cc2c3ccccc3n3c4ccccc4c(c1)c23`, the emission maximum worked out at 391.83 nm (in C1CCCCC1), 402.09 nm (in C1CCOC1) and 400 nm (in Cc1ccccc1).

As to `Cc1cc(C)c(B(c2ccc(-c3ccc(-c4nc5c6ccccc6c6ccccc6c5[nH]4)cc3)cc2)c2c(C)cc(C)cc2C)c(C)c1`, the emission maximum came out at 474 nm (in C1CCOC1); 493 nm (in CC(C)=O); 520 nm (in CS(C)=O); 435 nm (in Cc1ccccc1); 469 nm (in ClCCl).

Regarding `N#CC(C#N)=C(c1ccc(-n2ccc3ccccc32)cc1)c1ccc(-n2ccc3ccccc32)cc1`, the emission maximum (in Cc1ccccc1) worked out at 536 nm.

On to `Cc1ccc(C2=C3C=CC(/C=C/c4ccccc4)=[N+]3[B-](F)(F)n3c(/C=C/c4ccccc4)ccc32)cc1`, for which the emission maximum by setting is: (in C1CCCCC1) 642 nm; (in C1CCOC1) 645 nm; (in C1COCCO1) 646 nm; (in CCOC(C)=O) 641 nm; (in CO) 639 nm; (in Cc1ccccc1) 649 nm. For the same compound, the emission maximum (in ClC(Cl)Cl) was determined as 647 nm.

For `c1ccc2c(c1)ccc1ccc3ccc4ccccc4c3c12`, the emission maximum (in ClC(Cl)Cl) is reported as 424 nm.

Regarding `CC1=CC(C)=[N+]2C1=C(c1ccc(I)cc1)c1c(C)cc(C)n1[B-]21OCCO1`, the emission maximum (in ClC(Cl)Cl) is reported as 520.7 nm.

As for `[C-]#[N+]c1ccc(-c2ccc(N)cc2)cc1`, the emission maximum is 354 nm (in C1CCCCC1); 396 nm (in C1CCOC1); 383 nm (in C1COCCO1); 410 nm (in CC#N); 407 nm (in CC(C)=O); 353 nm (in CCCCCC). Besides, the emission maximum was 397 nm (in CCOC(C)=O); 423 nm (in CN(C)C=O); 419 nm (in CO); 424 nm (in CS(C)=O); 371 nm (in Cc1ccccc1); 398 nm (in ClC(Cl)Cl). The emission maximum reads like this: (in ClCCl) 390 nm; (in O) 457 nm; (in c1ccncc1) 415 nm.

Regarding `CN(C)c1ccc(/C=C/c2nc3ccc(Br)cc3nc2-c2ccccc2)cc1`, the emission maximum (in C1COCCO1) worked out at 555 nm, the emission maximum (in CC#N) was 648 nm and the emission maximum (in ClCCl) stood at 602 nm.

Consider `CCN(CC)c1ccc2cc(/C=C/C(=C(C#N)C#N)c3ccc(N(c4ccccc4)c4ccccc4)cc3)c(=O)oc2c1`, for which the emission maximum came out at 621 nm (in CC(C)=O); 599 nm (in CCOC(C)=O); 636 nm (in CN(C)C=O); 643 nm (in CS(C)=O); 576 nm (in Cc1ccccc1); 581 nm (in ClCCl).

Take `Cc1c(COC(=O)c2ccccc2)n2c(OCC(=O)c3ccccc3)c(C)c(=O)n2c1=O`: under “in CCO”, the emission maximum was found to be 457 nm.

`O=S1c2ccc(-c3c4ccccc4cc4ccccc34)cc2-c2cc(-c3c4ccccc4cc4ccccc34)ccc21`: the emission maximum runs as follows: (in C1CCCCC1) 405.03 nm; (in CC#N) 508.48 nm; (in ClCCl) 471.15 nm.

`CN(C)c1ccc(C2=C(c3ccccc3)c3oc4ccccc4[n+]3[B-](F)(F)O2)cc1` returned an emission maximum (in C1CCOC1) of 476 nm.

In turn, `C1=Cc2ccc(N(c3ccccc3)c3ccccc3)cc2Cc2cc(N(c3ccccc3)c3ccccc3)ccc21` showed an emission maximum (in ClCCl) of 440 nm.

With `CCn1c2ccccc2c2cc(/C=C/C(=O)c3ccc4c(c3)c3cc(C(=O)/C=C/c5ccc6c(c5)c5ccccc5n6CC)ccc3n4CC)ccc21`, the emission maximum is listed as 430 nm (in C1CCCCC1); 474 nm (in C1CCOC1); 491 nm (in CC#N); 476 nm (in CC(C)=O); 521 nm (in CCO); 475 nm (in CCOCC). Also, the emission maximum is, setting by setting: (in CN(C)C=O) 487 nm; (in CO) 542 nm; (in CS(C)=O) 493 nm; (in ClC(Cl)(Cl)Cl) 454 nm; (in ClC(Cl)Cl) 475 nm.

The compound `Cc1ccc(NC(=O)c2ccc(N(C)C)cc2)cc1` had an emission maximum (in C1CCCCC1) of 465 nm, an emission maximum (in C1CCOC1) of 532 nm, an emission maximum (in CC#N) of 502 nm and an emission maximum (in CCOCC) of 518 nm.

Regarding `CC(C)(C)[Si](C)(C)C#Cc1c2c(=O)c3ccccc3c2c(C#C[Si](C)(C)C(C)(C)C)c2c(=O)c3ccccc3c12`, the emission maximum (in ClC(Cl)Cl) was 571 nm.

In turn, `CCCCC(CC)COc1ccc2nc(-c3ccc(-c4c(C)noc4C)s3)sc2c1` (stereo not given) registered an emission maximum (in ClCCl) of 415 nm.

For the setting “in CCO”, `O=c1c2cc(F)c(O)cc2n(Cc2ccccc2)c2cc(O)c(F)cc12` displayed an emission maximum of 431 nm.

`Cn1cccc1-c1ccc(C#N)cc1` came in with an emission maximum (in C1CCOC1) of 383 nm; an emission maximum (in CC#N) of 407 nm; an emission maximum (in CCCCCC) of 357 nm; an emission maximum (in CCCCOCCCC) of 367 nm; an emission maximum (in CCOCC) of 371 nm.

On to `O=C(O)COc1ccc2[nH]c3c(c2c1)CCCC3=O`, for which the emission maximum (in C1CCOC1) is 419.81 nm; the emission maximum (in C1COCCO1) worked out at 404.04 nm; the emission maximum (in CC#N) was determined as 419.23 nm; the emission maximum (in CCCCCCCCCCCCO) is reported as 449.42 nm; the emission maximum (in CCCCCCCCCCO) was found to be 449.81 nm; the emission maximum (in CCCCCCCCO) amounted to 456.15 nm. In addition, the emission maximum turned out to be 469.04 nm (in CCCCCCO); 464.23 nm (in CCCCO); 472.12 nm (in CCO); 410 nm (in CCOC(C)=O); 430 nm (in CN(C)C=O); 491.73 nm (in CO). Moreover, the emission maximum reads like this: (in CS(C)=O) 426.92 nm; (in Cc1ccccc1) 400.96 nm; (in O) 507.69 nm; (in c1ccccc1) 399.81 nm.

Under “in CCO”, `COc1ccccc1CC(=O)OCc1c(C)c(=O)n2c(=O)c(C)c(C)n12` returned an emission maximum of 461 nm.

As for `CNc1cc2nc3cc(Br)c(Br)cc3nc2cc1NC`, where the note is “in CCO”, the emission maximum is reported as 542 nm.

With `CCOC(CN1C(=O)C2=C(c3cc4cc(C(C)(C)C)cc(C(C)(C)C)c4o3)N(CC(OCC)OCC)C(=O)C2=C1c1cc2cc(C(C)(C)C)cc(C(C)(C)C)c2o1)OCC`, for the setting “in ClC(Cl)Cl”, the emission maximum was determined as 594 nm.

Regarding `CC1(C)c2ccccc2N(c2ccc(-c3nc4cccc5c4n3-c3ccccc3C5(C)C)cc2)c2ccccc21`, the emission maximum reads like this: (in Cc1ccccc1) 450 nm; (in O=P(c1ccccc1)(c1ccccc1)c1ccccc1Oc1ccccc1P(=O)(c1ccccc1)c1ccccc1) 449 nm.

For the compound `CCOC(=O)c1c(-c2c(Cl)c3ccccc3oc2=O)nn(-c2cccc(Cl)c2)c1C(=O)OCC`, for the setting “in ClCCl”, the emission maximum was found to be 409 nm.

Consider `CC1=CC(Br)=CN2C[n+]3cc(Br)cc(C)c3N=C12`, for which the emission maximum (in CO) turned out to be 502 nm.

In the case of `O=C1/C(=C2\Sc3ccc(S(=O)(=O)Nc4ccccc4)cc3C2=O)Sc2ccc(S(=O)(=O)Nc3ccccc3)cc21`, the emission maximum runs as follows: (in C1COCCO1) 588 nm; (in CN(C)C=O) 604 nm; (in CO) 618 nm; (in CS(C)=O) 627 nm.

For the compound `COc1ccc(N(c2ccc(OC)cc2)c2ccc(-c3ccc(C=C(C#N)C#N)s3)cc2)cc1`, the emission maximum (in ClC(Cl)Cl) came to 700 nm.

For the setting “in CO”, `N#Cc1c(-n2nnc3ccccc32)n([C@H]2C[C@H](O)[C@@H](CO)O2)c2ncnc(N)c12` came in with an emission maximum of 416 nm.

As to `O=S1(=O)Nc2ccc3c(c2-c2ccccc21)-c1ccccc1S(=O)(=O)N3`, the emission maximum (in ClCCl) was 425 nm.

Take `CC(C)(C)c1cc2ccc3cc(C(C)(C)C)cc4c3c2c(c1)c(=O)n1c4nc2c3cc(C(C)(C)C)cc4ccc5cc(C(C)(C)C)cc(c5c43)c21`: the emission maximum was 523 nm (in C1CCOC1); 551 nm (in CC#N); 544 nm (in CC(C)=O); 495 nm (in CCCCCC); 524 nm (in CCOC(C)=O); 553 nm (in CS(C)=O). Also, the emission maximum by setting is: (in Cc1ccc(C)cc1) 521 nm; (in ClC(Cl)(Cl)Cl) 520 nm; (in ClC(Cl)Cl) 551 nm; (in c1ccccc1) 524 nm.

In turn, `N#CC(/N=C/c1ccccc1O)=C(C#N)/N=C/c1ccccc1O` registered an emission maximum (in CC#N) of 553 nm.

Turning to `O=P1(c2ccccc2)C(c2ccc(C(F)(F)F)cc2)=Cc2cc3ccccc3cc21` (stereo not given), the emission maximum (in ClCCl) is 425 nm.

Regarding `C=Cc1cccc(OC)c1`, the emission maximum was determined as 327 nm (in C1CCCCC1) and 330 nm (in CC#N).

On to `CC1(C)c2ccccc2N(c2ccc3c(c2)C(C)(C)c2cc(N4c5ccccc5C(C)(C)c5ccccc54)ccc2S3(=O)=O)c2ccccc21`, for which the emission maximum is 473.1 nm (in C1CCOC1); 526.32 nm (in CC#N); 451.46 nm and 453.62 nm (in Cc1ccccc1); 504 nm (in ClCCl).

Turning to `CCC(C)(C)c1ccc2c(c1)C(CC)(CC)c1cc(-c3ccc4c(c3)C(CC)(CC)c3cc(C(C)(C)CC)ccc3-4)ccc1-2`, the emission maximum (in C1CCCCC1) was determined as 371 nm.

`CCCCCOc1cc2oc(=O)c3c4ccc(C#N)cc4c4ccc5cccc6c(c1)c2c3c4c56` came in with an emission maximum (in C1CCOC1) of 444 nm.

With `CCn1c(-c2ccc(-c3ccc4ccc5cccc6ccc3c4c56)cc2)c(-c2ccc3ccccc3c2)c(-c2ccc3ccccc3c2)c1-c1ccc(-c2ccc3ccc4cccc5ccc2c3c45)cc1`, under “in CCOC(C)=O”, the emission maximum is 460 nm.

For the compound `COc1ccc(-c2cnc3nn4ccccc4c3c2)cc1`, the emission maximum (in C1CCOC1) came out at 423 nm.

Under “in Cc1ccccc1”, `c1cc2cc(c1)c1cccc(c1)c1ccc3ccc4ccc(cc4c3c1)c1cccc(c1)c1cccc2c1` yielded an emission maximum of 382 nm.

The record behind these values is the Deep4Chem optical property database.
